Measured values: US8329149B2, “Topical lightening composition and uses thereof” (Avon Products, Inc., priority 2009, dated 2012)

Tested on: B16 mouse melanoma cells
Experiment: B16 inhibition assay (melanin synthesis, normalized to MTT cell viability)
Assay type: cell-based
Details: 7 days
Procedure: The B16 assay uses a cell line derived from mice with inhibition of tyrosinase as the end point. For the B16 assay, the active oxobutanoic acid tyrosinase inhibitors as disclosed herein in Table 1 were tested in a monolayer cell culture of B16 mouse melanoma cells. These cells are known to constitutively produce melanin and are a commonly utilized and accepted model system for monitoring the inhibition of melanin synthesis.
The B16 mouse melanoma cells were seeded (ATCC, cat. #: CRL-6475) into 96-well tissue culture-treated plates (BD Falcon) and treated with test actives diluted in DMEM without phenol red (Mediatech; cat. #: 17-205-CV) and examined for their ability to modulate pigment formation. Kojic acid was used as the positive control inhibitor. Cells were exposed to diluted test material or controls for 7 days. Following the treatment period, the level of pigment produced or melanin synthesized was quantified by reading the absorbance at 540 nm using a standard microplate reader (Tecan Group Ltd.).
After quantifying the amount of melanin, cell viability was determined using the MTT conversion method. The MTT conversion method measures the reduction of the MTT dye from a yellow colored, water-soluble, tetrazolium salt to a bluish-purple colored insoluble formazan precipitate by NAD(P)H-dependent microsomal dehydrogenase enzymes, which only function in viable cells. The intensity of the blue color is indicative of cell viability. After quantifying the amount of melanin pigment produced, the cells were exposed to MTT dye solution (1 mg/ml) for two to three hours. Formazan material was solubilized with reagent alcohol (95% ethanol: 5% isopropanol) and shaken on an orbital shaker for 15-30 minutes. MTT dye uptake and conversion by viable cells were determined by measuring the extracted formazan at 570 nm using a microplate reader. Total pigmentation was calculated, normalized to cell viability values and expressed as percent activity relative to control. The compounds A-H of Table 1 in a weight percent ranging from about 0.0002% to about 0.002% inhibited tyrosinase by a percent ranging from about 29% to about 87%. […]

Cc1ccc(C(=O)CC(NCc2ccco2)C(=O)O)cc1 (stereo not drawn) [I, 2-(2-furanylmethylamino)-4-(4′-methylphenyl)-4-oxobutanoic acid]
B16 Results Percent inhibition of melanin (concentration 0.0001%): −20% | B16 Results Percent inhibition of melanin (concentration 0.001%): −71%

COc1ccc(C(=O)CC(NCc2cccnc2)C(=O)O)cc1 (stereo not drawn) [J, 2-(3-pyridylmethylamino)-4-(4′-methoxyphenyl)-4-oxobutanoic acid]
B16 Results Percent inhibition of melanin (concentration 0.0001%): −27.84% | B16 Results Percent inhibition of melanin (concentration 0.001%): −53.63%

Cc1ccc(C(=O)CC(NCc2ccccc2)C(=O)O)cc1 (stereo not drawn) [K, 2-(benzylamino)-4-(4′-methylphenyl)-4-oxobutanoic acid]
B16 Results Percent inhibition of melanin (concentration 0.0001%): −46% | B16 Results Percent inhibition of melanin (concentration 0.001%): −67%
